Measurements: PubChem BioAssay AID2060330 (Molecular Pharmacology Branch, DTP, NCI, 2025)
Values joined by “and” are separate entries in the source; they are usually repeats but may differ in a detail not shown here. Equal entries are not always repeated.

System: LG0703-F948-PDC spheroids with HUVEC/MSC, viability
Test: Anticancer human tumor LG0703-F948-PDC patient-derived lung adenocarcinoma cell line growth inhibition [IpAb]
Settings: for viability, T/C: stronger effect = lower value
Summary of the method: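 Multi-cell spheroids of 60% tumour cells, 25% HUVEC and 15% MSC in ultra-low-attachment U-bottom wells, treated with agents combined with ipatasertib or abemaciclib. Half-log ranges top out near clinical Cmax, or 10 microM when Cmax is unknown.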

[1] = curve of first compound, second compound 0.1 µM
[2] = curve of first compound, second compound 0.316 µM
[3] = curve of first compound, second compound 1 µM
[4] = second compound 0.1 µM, first compound 0.0316 µM
[5] = second compound 0.1 µM, first compound 0.1 µM
[6] = second compound 0.1 µM, first compound 0.316 µM
[7] = second compound 0.1 µM, first compound 1 µM
[8] = second compound 0.1 µM, first compound 3.16 µM
[9] = second compound 0.1 µM, first compound 10 µM
[10] = second compound 0.316 µM, first compound 0.0316 µM
[11] = second compound 0.316 µM, first compound 0.1 µM
[12] = second compound 0.316 µM, first compound 0.316 µM
[13] = second compound 0.316 µM, first compound 1 µM
[14] = second compound 0.316 µM, first compound 3.16 µM
[15] = second compound 0.316 µM, first compound 10 µM
[16] = second compound 1 µM, first compound 0.0316 µM
[17] = second compound 1 µM, first compound 0.1 µM
[18] = second compound 1 µM, first compound 0.316 µM
[19] = second compound 1 µM, first compound 1 µM
[20] = second compound 1 µM, first compound 3.16 µM
[21] = second compound 1 µM, first compound 10 µM
[22] = curve of first compound, second compound 3.16 µM
[23] = curve of first compound, second compound 10 µM
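Further: spheroids exposed to compounds for seven days before readout.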
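Wherever viability, T/C is given: T/C percent relative to DMSO vehicle wells set as 100% viability.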

Q: For `CC1(C)CCC(CN2CCN(c3ccc(C(=O)NS(=O)(=O)c4ccc(NCC5CCOCC5)c([N+](=O)[O-])c4)c(Oc4cnc5[nH]ccc5c4)c3)CC2)=C(c2ccc(Cl)cc2)C1` + CCN1CCN(Cc2ccc(Nc3ncc(F)c(-c4cc(F)c5nc(C)n(C(C)C)c5c4)n3)nc2)CC1, which IC50 (curve of first compound, second compound 0.01 µM) is on record?
A: 5080 nM

Q: What about the IC50 (curve of first compound, second compound 0.0316 µM) of the same compound?
A: 5000 nM

Q: What about the IC50 [1] of the same compound?
A: 4920 nM

Q: And the IC50 [2]?
A: 4120 nM

Q: And the IC50 [3]?
A: 1290 nM

Q: And the viability, T/C (second compound 0.01 µM, first compound 0.0316 µM)?
A: 102%

Q: What about the viability, T/C (second compound 0.01 µM, first compound 0.1 µM) of the same compound?
A: 100%

Q: And the viability, T/C (second compound 0.01 µM, first compound 0.316 µM)?
A: 100%

Q: What about the viability, T/C (second compound 0.01 µM, first compound 1 µM) of the same compound?
A: 87.2%

Q: What about the viability, T/C (second compound 0.01 µM, first compound 3.16 µM) of the same compound?
A: 77.9%

Q: And the viability, T/C (second compound 0.01 µM, first compound 10 µM)?
A: 13.5%

Q: What about the viability, T/C (second compound 0.0316 µM, first compound 0.0316 µM) of the same compound?
A: 81.8%

Q: What about the viability, T/C (second compound 0.0316 µM, first compound 0.1 µM) of the same compound?
A: 102%

Q: What about the viability, T/C (second compound 0.0316 µM, first compound 0.316 µM) of the same compound?
A: 84.3%

Q: And the viability, T/C (second compound 0.0316 µM, first compound 1 µM)?
A: 91%

Q: And the viability, T/C (second compound 0.0316 µM, first compound 3.16 µM)?
A: 75.3%

Q: What about the viability, T/C (second compound 0.0316 µM, first compound 10 µM) of the same compound?
A: 11.4%

Q: What about the viability, T/C [4] of the same compound?
A: 92.4%

Q: What about the viability, T/C [5] of the same compound?
A: 86.8%

Q: And the viability, T/C [6]?
A: 72.3%

Q: What about the viability, T/C [7] of the same compound?
A: 88.5%

Q: And the viability, T/C [8]?
A: 73.8%

Q: What about the viability, T/C [9] of the same compound?
A: 11.3%

Q: And the viability, T/C [10]?
A: 87.9%

Q: And the viability, T/C [11]?
A: 88.8%

Q: And the viability, T/C [12]?
A: 79.9%

Q: And the viability, T/C [13]?
A: 79%

Q: And the viability, T/C [14]?
A: 62.6%

Q: What about the viability, T/C [15] of the same compound?
A: 11.1%

Q: And the viability, T/C [16]?
A: 85%

Q: And the viability, T/C [17]?
A: 79%

Q: And the viability, T/C [18]?
A: 46.9%

Q: What about the viability, T/C [19] of the same compound?
A: 65.8%

Q: And the viability, T/C [20]?
A: 36.9%

Q: What about the viability, T/C [21] of the same compound?
A: 2.51%

Q: How did the IC50 [1] turn out when `Cn1nccc1Nc1nccc(-c2ccn(C(CO)c3ccc(Cl)c(F)c3)c(=O)c2)n1` (configuration not stated) + CC(C)NCC(C(=O)N1CCN(c2ncnc3c2C(C)CC3O)CC1)c1ccc(Cl)cc1 was run?
A: 502 nM

Q: What about the IC50 [2] of the same compound?
A: 97 nM

Q: What about the IC50 [3] of the same compound?
A: < 31.6 nM

Q: What about the IC50 [22] of the same compound?
A: < 31.6 nM

Q: And the IC50 [23]?
A: < 31.6 nM

Q: And the viability, T/C [4]?
A: 67.3%

Q: And the viability, T/C [5]?
A: 66.3%

Q: And the viability, T/C [6]?
A: 49.8%

Q: And the viability, T/C [7]?
A: 39.7%

Q: And the viability, T/C [8]?
A: 50.3%

Q: What about the viability, T/C [9] of the same compound?
A: 37.6%

Q: What about the viability, T/C [10] of the same compound?
A: 64.7%

Q: And the viability, T/C [11]?
A: 49.4%

Q: And the viability, T/C [12]?
A: 36.5%

Q: And the viability, T/C [13]?
A: 28%

Q: What about the viability, T/C [14] of the same compound?
A: 32.5%

Q: What about the viability, T/C [15] of the same compound?
A: 27.1%

Q: What about the viability, T/C [16] of the same compound?
A: 45%

Q: What about the viability, T/C [17] of the same compound?
A: 39.8%

Q: What about the viability, T/C [18] of the same compound?
A: 21.7%

Q: What about the viability, T/C [19] of the same compound?
A: 15.3%

Q: And the viability, T/C [20]?
A: 12.3%

Q: And the viability, T/C [21]?
A: 16%

Q: What about the viability, T/C (second compound 3.16 µM, first compound 0.0316 µM) of the same compound?
A: 38.2%

Q: What about the viability, T/C (second compound 3.16 µM, first compound 0.1 µM) of the same compound?
A: 33%

Q: What about the viability, T/C (second compound 3.16 µM, first compound 0.316 µM) of the same compound?
A: 16.4%

Q: And the viability, T/C (second compound 3.16 µM, first compound 1 µM)?
A: 9.61%

Q: What about the viability, T/C (second compound 3.16 µM, first compound 3.16 µM) of the same compound?
A: 9.49%

Q: What about the viability, T/C (second compound 3.16 µM, first compound 10 µM) of the same compound?
A: 5.88%

Q: And the viability, T/C (second compound 10 µM, first compound 0.0316 µM)?
A: 32.5%

Q: And the viability, T/C (second compound 10 µM, first compound 0.1 µM)?
A: 22.6%

Q: And the viability, T/C (second compound 10 µM, first compound 0.316 µM)?
A: 29.5%

Q: And the viability, T/C (second compound 10 µM, first compound 1 µM)?
A: 6.93%

Q: What about the viability, T/C (second compound 10 µM, first compound 3.16 µM) of the same compound?
A: 4.16%

Q: And the viability, T/C (second compound 10 µM, first compound 10 µM)?
A: 3.23%

Q: `CC(=O)c1c(C)c2cnc(Nc3ccc(N4CCNCC4)cn3)nc2n(C2CCCC2)c1=O` was tested. Which viability, T/C (compound 0.000949 µM) did it give?
A: 115% and 112%

Q: What about the viability, T/C (compound 0.003 µM) of the same compound?
A: 112% and 98.4%

Q: And the viability, T/C (compound 0.00949 µM)?
A: 103% and 102%

Q: And the viability, T/C (compound 0.03 µM)?
A: 101% and 87.4%

Q: What about the viability, T/C (compound 0.0949 µM) of the same compound?
A: 103% and 73.3%

Q: What about the viability, T/C (compound 0.3 µM) of the same compound?
A: 84% and 77.2%

Q: What about the IC50 (curve of compound) of the same compound?
A: > 300 nM

Q: For `CC(=O)c1c(C)c2cnc(Nc3ccc(N4CCNCC4)cn3)nc2n(C2CCCC2)c1=O` + CC(C)NCC(C(=O)N1CCN(c2ncnc3c2C(C)CC3O)CC1)c1ccc(Cl)cc1, which IC50 [1] is on record?
A: > 300 nM

Q: And the IC50 [2]?
A: > 300 nM

Q: What about the IC50 [3] of the same compound?
A: 2.55 nM

Q: What about the IC50 [22] of the same compound?
A: < 0.949 nM

Q: And the IC50 [23]?
A: < 0.949 nM

Q: And the viability, T/C (second compound 0.1 µM, first compound 0.000949 µM)?
A: 86.8%

Q: What about the viability, T/C (second compound 0.1 µM, first compound 0.003 µM) of the same compound?
A: 86%

Q: What about the viability, T/C (second compound 0.1 µM, first compound 0.00949 µM) of the same compound?
A: 84.8%

Q: And the viability, T/C (second compound 0.1 µM, first compound 0.03 µM)?
A: 73.3%

Q: And the viability, T/C (second compound 0.1 µM, first compound 0.0949 µM)?
A: 80.4%

Q: And the viability, T/C (second compound 0.1 µM, first compound 0.3 µM)?
A: 73.4%

Q: What about the viability, T/C (second compound 0.316 µM, first compound 0.000949 µM) of the same compound?
A: 70.5%

Q: And the viability, T/C (second compound 0.316 µM, first compound 0.003 µM)?
A: 69.7%

Q: And the viability, T/C (second compound 0.316 µM, first compound 0.00949 µM)?
A: 60.5%

Q: And the viability, T/C (second compound 0.316 µM, first compound 0.03 µM)?
A: 62.5%

Q: What about the viability, T/C (second compound 0.316 µM, first compound 0.0949 µM) of the same compound?
A: 58.4%

Q: What about the viability, T/C (second compound 0.316 µM, first compound 0.3 µM) of the same compound?
A: 60.3%

Q: What about the viability, T/C (second compound 1 µM, first compound 0.000949 µM) of the same compound?
A: 54.6%

Q: What about the viability, T/C (second compound 1 µM, first compound 0.003 µM) of the same compound?
A: 53.1%

Q: What about the viability, T/C (second compound 1 µM, first compound 0.00949 µM) of the same compound?
A: 42.4%

Q: What about the viability, T/C (second compound 1 µM, first compound 0.03 µM) of the same compound?
A: 41.8%

Q: And the viability, T/C (second compound 1 µM, first compound 0.0949 µM)?
A: 42.1%

Q: And the viability, T/C (second compound 1 µM, first compound 0.3 µM)?
A: 43.9%

Q: What about the viability, T/C (second compound 3.16 µM, first compound 0.000949 µM) of the same compound?
A: 50.1%

Q: What about the viability, T/C (second compound 3.16 µM, first compound 0.003 µM) of the same compound?
A: 41.8%

Q: What about the viability, T/C (second compound 3.16 µM, first compound 0.00949 µM) of the same compound?
A: 41.7%

Q: What about the viability, T/C (second compound 3.16 µM, first compound 0.03 µM) of the same compound?
A: 42.2%

Q: And the viability, T/C (second compound 3.16 µM, first compound 0.0949 µM)?
A: 34.9%

Q: What about the viability, T/C (second compound 3.16 µM, first compound 0.3 µM) of the same compound?
A: 33.5%

Q: What about the viability, T/C (second compound 10 µM, first compound 0.000949 µM) of the same compound?
A: 41.5%

Q: What about the viability, T/C (second compound 10 µM, first compound 0.003 µM) of the same compound?
A: 37.9%

Q: What about the viability, T/C (second compound 10 µM, first compound 0.00949 µM) of the same compound?
A: 43.5%

Q: What about the viability, T/C (second compound 10 µM, first compound 0.03 µM) of the same compound?
A: 40%

Q: What about the viability, T/C (second compound 10 µM, first compound 0.0949 µM) of the same compound?
A: 33.5%

Q: And the viability, T/C (second compound 10 µM, first compound 0.3 µM)?
A: 27.5%
